Test results taken from patent US20250186456A1, “PYRIMIDINE-FUSED CYCLIC COMPOUND AND PREPARATION METHOD AND USE THEREOF” (Genfleet Therapeutics (Shanghai) Inc., priority 2021, published 2025).

How the values were obtained:
Assay type in all cases: cell-based, human
[1] = tested on: AsPC-1 cells (KRAS G12D mutation); assay: Cell proliferation inhibition assay, 3D, CellTiter-Glo 3D, AsPC-1; conditions: Homo sapiens, ASPC1, 120 h, AsPC-1 3D sphere model, 5 days incubation
Description: (§1) AsPC-1 was purchased from ATCC; catalog No: CRL-1682; AGS was purchased from ATCC; catalog No: CRL-1739; RPMI1640 was purchased from Gibco; catalog No: 11875-093 2235123; F12K was purchased from Gibco; catalog No: 21127-022; FBS was purchased from Gibco; catalog No: 10099-141C; trypsin (containing EDTA) was purchased from Gibco; catalog No: 25200-072; CellTiter Glo-3D was purchased from Progema; catalog No: G9683; 384-well sphere plates were purchased from Corning; catalog No: 3830; white opaque 384-well plates were purchased from Corning; catalog No: 3570; cell counters were purchased from CHEMOMETEC; model: NC-200; microplate reader was purchased from PerkinElmer; model: Envison;
(§2) AsPC-1 is an endogenous human pancreatic cancer cell containing KRAS^G12D mutation, cultured in RPMI-1640 medium containing 10% FBS; AGS is a human gastric cancer cell line containing KRAS^G12D, cultured in F-12K medium containing 10% FBS. Cells in the logarithmic growth phase were taken, digested with trypsin (containing EDTA), collected, and counted. 800 AsPC-1 cells/well or 400 AGS cells/well, respectively, were seeded in a 384-well sphere plate and cultured overnight at 5% CO2 to establish a 3D cell model. 1000X stock solutions of compounds at a 3.16-fold concentration gradient of were prepared using DMSO, diluted 100-fold into a 10X compound stock solution using the medium described above. The 10X compound stock solution was added to each cell on 2nd day after cell seeding at a final concentration of 1X and a DMSO content of 0.1%. DMSO was used as a control in the experiment, and the medium was used as blank. After the addition of the compounds, the cells were incubated for 5 days. 30 μl of CellTiter-Glo work solution was added to each well, mixed well, and incubated for 30 minutes. After standing at room temperature for 30 minutes, 40 μl of the mixed solution was transferred to an opaque 384-well plate with a white clear bottom. Luminescence chemiluminescence value was read by a microplate reader, and the cell proliferation inhibition rate (IR (%)=(RLU control-RLU compound)/(RLU control-RLU blank)×100%) was calculated. The gradiently diluted concentration of the compounds and corresponding cell proliferation inhibition rate were fitted using XLFit four-parameters method, and the IC50 value was calculated. […] The results of some exemplary compounds are shown in Table 2 (“−” represents untested).

[2] = tested on: AGS cells (KRAS G12D); assay: Cell proliferation inhibition assay, 3D, CellTiter-Glo 3D, AGS; conditions: Homo sapiens, 120 h, AGS 3D sphere model, 5 days incubation
Description: as §1, §2

[3] = tested on: p-ERK in AGS cells (KRAS G12D mutation); assay: Cell p-ERK assay (HTRF, Advance ERK phospho-T202/Y204 kit); conditions: Homo sapiens; AGS cells, 3 hours incubation with compound, HTRF; read-out: AGS p-ERK IC50
Method: AGS was purchased from ATCC; catalog No: CRL-1739; F12K was purchased from Gibco; catalog No: 21127-022; FBS was purchased from Gibco; catalog No: 10099-141C; trypsin (containing EDTA) was purchased from Gibco, catalog No: 25200-072; DMSO was purchased from VWRAMRESCO; catalog No: 0231-500 ML; 96-well cell culture plates were purchased from Corning; catalog No: 3599; white opaque 96-well plates were purchased from Cisbio; catalog No: 66PL96025; Advance ERK phospho-T202/Y204 kit was purchased from Cisbio; catalog No: 64AERPEH; cell counters were purchased from CHEMOMETEC; model No: NC-200; microplate reader was purchased from PerkinElmer; model No: Envison.
AGS is an endogenous human gastric adenocarcinoma cell line containing the KRAS^G12D mutation, cultured in F12K+10% FBS medium. On the first day of the experiment, cells in the logarithmic growth phase were taken, digested with trypsin (containing EDTA), collected, and counted. Approximately 20000 cells/well were seeded in a 96-well cell culture plate and cultured overnight in an incubator with 5% CO2. 1000X stock solutions of compounds at a 3.16-fold concentration gradient were prepared using DMSO, and diluted 200-fold into a 5X compound stock solution using the medium described above. The 5X compound stock solution was added to each cell culturing well the day after cell seeding at a final concentration of 1X and a DMSO content of 0.1%. DMSO was used as a control in the experiment. After the compound was added and the incubation was kept for 3 hours, the medium in the culture wells was removed. 50 μl of Cell lysis solution (from Advance ERK phospho-T202/Y204 kit, the same below) was added to each well, mixed well, and incubated for 30 minutes and then 16 μl of the mixed solution was transferred to a white opaque 96-well plate, another 16 μl of cell lysis solution was added to a well as a blank well. After transferring, 4 μl of p-ERK HTRF antibody mixture (from Advance ERK phospho-T202/Y204 kit) was added to each well. After incubation for 4 hours, HTRF fluorescence value (RLU) was read by a microplate reader, and p-ERK level inhibition rate (IR (%)=(RLU control-RLU compound)/(RLU control-RLU blank)×100%) of the compounds was calculated. The concentration of the compounds and corresponding cell p-ERK level inhibition rate were fitted using Prism 8 four-parameters method, and the IC50 value was calculated.

| Compound | IC50 [1] | IC50 [2] | IC50 [3] |
| --- | --- | --- | --- |
| C#Cc1c(F)ccc2cc(O)cc(-c3nc4c5c(nc(OCC67CC(=C)CN6CC(=C)C7)nc5c3F)N3C[C@H]5CC[C@H](N5)[C@H]3CO4)c12 [Example Z380, 4-((5aS,6S,9R)-12-((2,6-Dimethylenetetrahydro-1H-Pyrrolizin-7a (5H)-Yl)Methoxy)-1-Fluoro-5a,6,7,8,9,10-Hexahydro-5H-4-Oxa-3,10a,11,13,14-Pentaaza-6,9-Methanonaphtho[1,8-Ab]Heptalen-2-Yl)-5-Ethynyl-6-Fluoronaphthalen-2-Ol] | 26.2 nM | 2.68 nM | 0.78 nM |
| C#Cc1cccc2cc(O)cc(-c3nc4c5c(nc(OC[C@@]67CCCN6C[C@H](F)C7)nc5c3F)N3C[C@H]5CC[C@H](N5)[C@H]3[C@H](C)O4)c12 [Example Z384, 5-ethynyl-4-((5S,5aS,6S,9R)-1-fluoro-12-(((2R,7aS)-2-fluorotetrahydro-1H-pyrrolizin-7a (5H)-yl)methoxy)-5-methyl-5a,6,7,8,9,10-hexahydro-5H-4-oxa-3,10a, 11,13,14-pentaaza-6,9-methanonaphtho[1,8-ab]heptalen-2-yl) naphthalen-2-ol] | 7.34 nM | 1.5 nM | 0.65 nM |
| C#Cc1cccc2cc(O)cc(-c3nc4c5c(nc(OC[C@@]67CCCN6C[C@H](F)C7)nc5c3F)N3C[C@H]5CC[C@H](N5)[C@H]3[C@H](CC)O4)c12 [Example Z386, 4-((5S,5aS,6S,9R)-5-Ethyl-1-Fluoro-12-(((2R,7aS)-2-Fluorotetrahydro-1H-Pyrrolizin-7a (5H)-Yl)Methoxy)-5a,6,7,8,9,10-Hexahydro-5H-4-Oxa-3,10a,11,13,14-Pentaaza-6,9-Methanonaphtho[1,8-Ab]Heptalen-2-Yl)-5-Ethynylnaphthalen-2-Ol] | 14.7 nM | 2.4 nM | 0.76 nM |
| C#Cc1cccc2cccc(-c3nc4c5c(nc(OC[C@@]67CCCN6C[C@H](F)C7)nc5c3F)N3C[C@H]5CC[C@H](N5)[C@H]3[C@H](CC)O4)c12 [Example Z387, (5S,5aS,6S,9R)-5-ethyl-2-(8-ethynylnaphthalen-1-yl)-1-fluoro-12-(((2R,7aS)-2-fluorotetrahydro-1H-pyrrolizin-7a (5H)-yl)methoxy)-5a,6,7,8,9,10-hexahydro-5H-4-oxa-3,10a, 11,13,14-pentaaza-6,9-methanonaphtho[1,8-ab]heptalene] | 202 nM | 73.3 nM | 50.2 nM |
| C#Cc1c(F)ccc2cccc(-c3nc4c5c(nc(OCC67CC(=C)CN6CC(=C)C7)nc5c3F)N3C[C@H]5CC[C@H](N5)[C@H]3[C@H](C)O4)c12 [Example Z388, (5S,5aS,6S,9R)-12-((2,6-dimethylenetetrahydro-1H-pyrrolizin-7a (5H)-yl)methoxy)-2-(8-ethynyl-7-fluoronaphthalen-1-yl)-1-fluoro-5-methyl-5a,6,7,8,9,10-hexahydro-5H-4-oxa-3,10a, 11, 13,14-pentaaza-6,9-methanonaphtho[1,8-ab]heptalene] | 191 nM | 53.1 nM | 17.9 nM |
| C#Cc1cc(F)cc2cccc(-c3nc4c5c(nc(OCC67CC(=C)CN6CC(=C)C7)nc5c3F)N3C[C@H]5CC[C@H](N5)[C@H]3[C@H](C)O4)c12 [Example Z550, (5S,5aS,6S,9R)-12-((2,6-dimethylenetetrahydro-1H-pyrrolizin-7a (5H)-yl)methoxy)-2-(8-ethynyl-6-fluoronaphthalen-1-yl)-1-fluoro-5-methyl-5a,6,7,8,9,10-hexahydro-5H-4-oxa-3,10a, 11,13,14-pentaaza-6,9-methanonaphtho[1,8-ab]heptalene] | 394 nM | 109 nM | 91.2 nM |
| C#Cc1cccc2cccc(-c3nc4c5c(nc(OCC67CC(=C)CN6CC(=C)C7)nc5c3F)N3C[C@H]5CC[C@H](N5)[C@H]3[C@H](C)O4)c12 [Example Z551, (58,5aS,6S,9R)-12-((2,6-dimethylenetetrahydro-1H-pyrrolizin-7a (5H)-yl)methoxy)-2-(8-ethynylnaphthalen-1-yl)-1-fluoro-5-methyl-5a,6,7,8,9,10-hexahydro-5H-4-oxa-3,10a,11,13,14-pentaaza-6,9-methanonaphtho[1,8-ab]heptalene] | 170 nM | 45.4 nM | 61 nM |
| C#Cc1c(F)ccc2cc(O)cc(-c3nc4c5c(nc(OC[C@@]67CCCN6C[C@H](F)C7)nc5c3F)N3C[C@H]5CC[C@H](N5)[C@H]3[C@H](C)O4)c12 [Example Z552, 5-ethynyl-6-fluoro-4-((5S,5aS,6S,9R)-1-fluoro-12-(((2R,7aS)-2-fluorotetrahydro-1H-pyrrolizin-7a (5H)-yl)methoxy)-5-methyl-5a,6,7,8,9,10-hexahydro-5H-4-oxa-3,10a,11,13,14-pentaaza-6,9-methanonaphtho[1,8-ab]heptalen-2-yl) naphthalen-2-ol] | 5.77 nM | 0.53 nM | 0.67 nM |
| C#Cc1c(F)ccc2cc(O)cc(-c3nc4c5c(nc(OCC67CC(=C)CN6CC(=C)C7)nc5c3F)N3C[C@H]5CC[C@H](N5)[C@H]3[C@H](C)O4)c12 [Example Z553, 4-((5S,5aS,6S,9R)-12-((2,6-dimethylenetetrahydro-1H-pyrrolizin-7a (5H)-yl)methoxy)-1-fluoro-5-methyl-5a,6,7,8,9,10-hexahydro-5H-4-oxa-3,10a, 11,13,14-pentaaza-6,9-methanonaphtho[1,8-ab]heptalen-2-yl)-5-ethynyl-6-fluoronaphthalen-2-ol] | 9.13 nM | 0.53 nM | 0.48 nM |
| C#Cc1c(F)ccc2cccc(-c3nc4c5c(nc(OCC67CCCN6CC(=C)C7)nc5c3F)N3C[C@H]5CC[C@H](N5)[C@H]3[C@H](C)O4)c12 (stereo partly drawn) [Example Z590, (5S,5aS,6S,9R)-2-(8-ethynyl-7-fluoronaphthalen-1-yl)-1-fluoro-5-methyl-12-((2-methylenetetrahydro-1H-pyrrolizin-7a (5H)-yl)methoxy)-5a,6,7,8,9,10-hexahydro-5H-4-oxa-3,10a,11,13,14-pentaaza-6,9-methanonaphtho[1,8-ab]heptalene] | 114 nM | 17.3 nM | 7.11 nM |
| C#Cc1c(Cl)ccc2cccc(-c3nc4c5c(nc(OCC67CCCN6CC(=C)C7)nc5c3F)N3C[C@H]5CC[C@H](N5)[C@H]3[C@H](C)O4)c12 (stereo partly drawn) [Example Z593, (5S,5aS,6S,9R)-2-(7-chloro-8-ethynylnaphthalen-1-yl)-1-fluoro-5-methyl-12-((2-methylenetetrahydro-1H-pyrrolizin-7a (5H)-yl)methoxy)-5a,6,7,8,9,10-hexahydro-5H-4-oxa-3,10a, 11,13, 14-pentaaza-6,9-methanonaphtho[1,8-ab]heptalene] | 78.8 nM | 35.4 nM | 29 nM |
